Here are results for 2 compounds from PMC11059093 (Frontiers in Chemistry, 2024).

Molecules are shown by their SMILES.

The subject of series [1] is SH-SY5Y. Briefly: Hydrogen peroxide induced oxidative stress (ROS, DCFH-DA probe) in SH-SY5Y cells. Format: cell-based. Particulars: SH-SY5Y treated with 400 μM hydrogen peroxide for 12 h. The text has this:
(§1) FIGURE 2 Cytotoxicity assay of 6b and 6c on SH-SY5Y (A) and BV2 (B). Protective effect of 6b and 6c against H2O2 induced SH-SY5Y oxidative stress (C).
The effect of 6b and 6c on the oxidative stress of SH-SY5H cells induced by hydrogen peroxide was investigated using DCFH-DA as the fluorescent probe ([Xu et al., 2021]).

The nature of series [2]: Metal-chelating study by UV spectrophotometry. The class given is physicochemical. As to conditions: for Metal-chelating property: 50 µM compound with Cu^2+, Zn^2+, Fe^2+ or Fe^3+ (50 µM), HEPES pH 7.4, UV-vis; for Inflection point, concentration ratio of Cu^2+ to compound: 50 µM compound, 0–100 µM copper ion, inflection point method. As for the experimental part: To further evaluate multi-target anti-AD potential, the metal-chelating properties of 6b and 6c were determined by UV spectrophotometry ([Geng et al., 2012]; [Lu et al., 2013]; [Hu et al., 2019]). […] While co-incubated with Fe^3+ or Fe^2+, the intensity at 255 nm was in different degrees decreased. The same result occurred for 6c. […] Next, the chelation ratios of 6b and 6c to Cu^2+ were measured and calculated using the inflection point method (Figures 3B, D). The inflection point appears when the concentration ratio of compound Cu^2+ to 6b or 6c is 0.5, so it can be inferred that the chelation ratio of compound 6b and 6c to Cu^2+ is 2:1.
6b and 6c (50 µM) were incubated with CuSO4, FeSO4, FeCl3, or ZnCl2 (50 µM) in buffer (20 mM HEPES, 150 mM NaCl, pH 7.4) for 30 min, and the absorption spectras were recorded at room temperature. For the stoichiometry of the compound–Cu^2+ complex, a fixed amount of 6b and 6c (50 µM) was mixed with growing amounts of copper ion (0–100 µM), and the difference UV−vis spectra were examined to investigate the ratio of ligand/metal in the complex.

In series [3] the test system is BV2. Briefly: Cytotoxicity assay on BV2 cells. Format: cell-based. As to conditions: BV2, 20 μM. As for the experimental part: (§2) To further investigate the bioactivity of the compounds, cytotoxicity was evaluated on SH-SY5Y and BV2 cell lines (Figures 2A, B).
as §1

A short description of series [4]: Oxygen radical absorbance capacity (ORAC-FL) assay. Particulars: compounds 5 µM, mean of n = 3 ± SD.
Description: The solution of 2,2′-azobis- (amidinopropane) dihydrochloride (AAPH) was prepared to a final concentration of 40 mM. The mixture of the tested compounds (20 µL) and FL (120 μL; 70 nM) was pre-incubated for 10 min at 37°C, 60 µL of the AAPH solution was added. The fluorescence was recorded every minute for 120 min (excitation, 485 nm; emission, 520 nm). The antioxidant curves (fluorescence versus time) were normalized to the curve of the blank.
Where f0 is the initial fluorescence reading at 0 min and fi is the fluorescence reading at time i. The net AUC was calculated by the expression: AUCsample—AUCblank. Regression equations between net AUC and Trolox concentration were calculated. ORAC-FL value of the tested compound expressed as Trolox equivalents.
In series [5] the target is T1, Aβ1–42 (Homo sapiens, UniProt P05067).
T1 construct: Aβ1−42 (Sigma-Aldrich) was dissolved in NH4OH (1% v/v) to get a stock solution; purchased Sigma-Aldrich
Briefly: Inhibition of self-mediated Aβ1–42 aggregation, thioflavin T fluorescence assay. As to conditions: ThT assay, compounds 20 μM, mean of n = 3 ± SD. Format: biochemical.

The nature of series [6]: Parallel artificial membrane permeability assay for the blood-brain barrier (PAMPA-BBB). Particulars: for pred (predicted BBB permeation): classified from PAMPA-BBB Pe.
The target of series [7] is T2, Cu^2+-induced Aβ1-42 aggregation (Homo sapiens, UniProt P05067).
T2 construct: Aβ1-42 (Sigma-Aldrich A9810, 20 μM) was dissolved in HEPES buffer; purchased Sigma-Aldrich A9810
The series is described as follows: Cu^2+-induced Aβ1-42 aggregation, thioflavin T fluorometric detection. Format: biochemical. As to conditions: ThT, compound stock 150 μM. As for the experimental part:
To further detect the ability of compounds 6b, CQ and MT to disaggregate or inhibit the Cu^2+-induced Aβ1-42 aggregation, we conducted thioflavin T fluorometric detection ([Hu et al., 2019]).
Detection of the compounds for disaggregated and inhibitory effects on Cu^2+ induced Aβ1-42 aggregation. Aβ1-42 (Sigma-Aldrich A9810, 20 μM) was dissolved in HEPES buffer (pH = 6.6, containing 1% ammonium hydroxide). 10 μL of Aβ1-42 was previously incubated with or without Cu^2+ at 37°C for 3 days to pre-fibrillation. 10 μL of 6b, CQ, and MT (150 μM, in DMSO) were incubated before or after the pre-fibrillation of Aβ1-42 at 37°C for 1 day. After incubation, 170 μL of thioflavin T (5 μM, in 50 mM glycine-NaOH buffer) was added to mix well. After incubation for 5 min, the Aβ1-42 aggregation was detected by Microplate Reader (HITACHI, F-4700) with excitation/emission at 450/485 nm.

Series [8] has as its system SH-SY5Y. The series is described as follows: Cytotoxicity assay on SH-SY5Y cells. Format: cell-based. Here is the method: as §2, §1

T2 sequence (P05067 672-713 limits assumed): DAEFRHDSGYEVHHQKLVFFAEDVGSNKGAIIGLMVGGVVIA
T1 sequence (P05067 672-713 limits assumed): as above

With `COc1ccc2[nH]cc(CCNC(=O)c3ccc4cccc(O)c4n3)c2c1` [Compound 6b, 8-hydroxy-N-(2-(5-methoxy-1H-indol-3-yl)ethyl)quinoline-2-carboxamide], in series [1], the “ROS production after pretreatment” value is recorded as “reduced ROS production in a dose-dependent manner”. Besides, in series [2], the Metal-chelating property entry is reported as “possess metal-chelating properties”. In series [2], the “Inflection point, concentration ratio of Cu^2+ to compound” value came to 0.5. The Cytotoxicity entry was “no significant cytotoxicity” in series [3], “no cytotoxicity” in series [8] (5 μM) and “slight toxicity” in series [8] (10 μM). In addition, the ORAC in series [4] is 2.76 ± 0.01 Trolox equivalents. Also, the inhibition (in general, how much of the control response was suppressed) at 20 µM in series [5] was determined as 63.2 ± 2.02%. In addition, the Papp (usually a coefficient for how fast a substance crosses the barrier) in series [6] (PAMPA) came out at 6.91 ± 0.92 ×10⁻⁶ cm/s. Further, in series [6] (PAMPA, can cross the blood-brain barrier), the “P e” value is given as > 4.7. In addition, the “pred (predicted BBB permeation)” value in series [6] is “CNS+ (Compounds of high BBB permeation (CNS+) Pe>4.7)”. In series [7] (Figure 4A), the “Disaggregation of Cu^2+-induced Aβ1-42 aggregation” value was “significantly disaggregated”. In addition, the “Inhibition of Cu^2+-induced Aβ1-42 aggregation” value in series [7] (Figure 4B) is on record as “distinct inhibitory effect”.

`O=C(NCCc1c[nH]c2ccc(O)cc12)c1ccc2cccc(O)c2n1` [Compound 6c, 8-hydroxy-N-(2-(5-hydroxy-1H-indol-3-yl)ethyl)quinoline-2-carboxamide]: the “ROS production after pretreatment” value in series [1] is “reduced ROS production in a dose-dependent manner”. Further, the Metal-chelating property result in series [2] was “possess metal-chelating properties”. Besides, the “Inflection point, concentration ratio of Cu^2+ to compound” value in series [2] worked out at 0.5. Moreover, the Cytotoxicity result in series [3] was “no significant cytotoxicity”; in series [8] (5 μM) it was “no cytotoxicity”; in series [8] (10 μM), “slight toxicity”. In series [4], this compound registered an ORAC of 3.23 ± 0.02 Trolox equivalents. This compound registered an inhibition at 20 µM in series [5] of 40.3 ± 2.09%. In addition, the apparent permeability coefficient (Papp) in series [6] (PAMPA) is 2.96 ± 0.58 ×10⁻⁶ cm/s. In series [6], the “pred (predicted BBB permeation)” value was “CNS± (Compounds of uncertain BBB permeation (CNS+/ -) 4.7>Pe>1.8)”.
